Results: US8628788B2, “Formulations containing a non-oxidative biocide and a source of active halogen and use thereof in water treatment” (Bromine Compounds, Ltd., priority 2006, dated 2014)

Test system: Pseudomonas aeruginosa (ATCC 15442)
Assay: Simulated biofilm (bacteria entrapped in alginate gel beads)
Type: cell-based
Settings: 2.5 ppm DBNPA, 30 minutes contact time
Description: The biofilm simulation was created by entrapping bacteria in alginate gel beads.

## N#CC(Br)(Br)C(N)=O [DBNPA, 2,2-Dibromo-3-nitrilopropionamide]
  log reduction (as compared to control): 3 log reduction
